# Reference: patent US20100249175A1, “Dicationic compounds which selectively recognize G-quadruplex DNA” (priority 2005, published 2010)
# How the values were obtained:
# [1] = system: Tetrahymena telomere, d[(T2G4)4] (SEQ ID NO: 4); assay: CD titration with Tetrahymena telomere; format: binding; details: HEPES buffer containing 50 mM KCl
# Text: (§1) The oligonucleotides d[AG3(T2AG3)3] (SEQ ID NO: 1), d[AG3TG4AG3TG4A] (SEQ ID NO: 2), d[G4(T4G4)3] (SEQ ID NO: 3), d[(T2G4)4] (SEQ ID NO: 4), d[(GC)7] (SEQ ID NO: 5), d[[…]] (SEQ ID NO: 6), d[G2T2G2TGTG2T2G2] (SEQ ID NO: 7), d[[…]] (SEQ ID NO: 8), d[[…]] (SEQ ID NO: 9), d[[…]] (SEQ ID NO: 10), d[[…]] (SEQ ID NO: 11), d[TTAGGGT] (SEQ ID NO: 12), and d[TGGGGT] (SEQ ID NO: 13) were purchased with HPLC purification from Midland Certified Reagent Company (The Midland Certified Reagent Company, Inc., Midland, Tex., USA). The concentration of each DNA sample was determined spectrophotometrically at 260 nm using the nearest neighbor extinction coefficient.
# Stock solutions of individual dicationic polyaryl compounds were prepared in double distilled water and diluted to working concentrations immediately before use with buffer. All measurements were performed at 20° C. in a 10 mM HEPES buffer (pH 7.4) containing 3 mM EDTA and 50 mM KCl, NaCl, or LiCl. Absorbance spectra were obtained on a Varian Cary 300 BIO UV-visible spectrophotometer (Varian, Inc., Palo Alto, Calif., United States of America) in a quartz cell with a 1 cm pathlength. CD spectra were recorded using a Jasco J-810 spectrapolarimeter (Jasco, Inc., Easton, Md., United States of America) in a 1-cm cell using an instrument scanning speed of 50 nm/min with a response time of 1 s. The spectra were averaged over four scans. […]
# [2] = system: STIB 900 strain of Trypanosoma brucei rhodesiense (T. b. r.); assay: In vivo T. b. r. STIB 900 mouse model; details: 20 mg/kg ip
# Description: Groups of four mice were infected intraperitoneally with 2×10^5 bloodstream forms of T. b. r. STIB 900 which originates from a patient in Tanzania. On days 3, 4, 5, and 6 post-infection the experimental groups were treated with the drugs either by the intraperitoneal or for prodrugs by the oral route. Usually the highest tolerated dose was used which was determined in a pretoxicological experiment. Parasitemia of the mice was checked daily up to day 14 post-infection and thereafter 2 times per week up to day 60. One group of mice was not treated and acted as control. For relapsing mice, the day of death was recorded and the survival time determined.
# [3] = system: Plasmodium falciparum (P. f.); assay: In vitro antiprotozoal activity against P. f.; format: cell-based; details: in vitro, read-out: P.f. (IC50)
# Description: In vitro antiprotozoal activities were measured following established protocols. […] E., et al., Bioorg.
# human telomeric DNA = assay: Thermal melting (ΔTm) of human telomeric DNA; format: binding; details: HEPES buffer containing 50 mM KCl monitored at 295 nm (data not shown)
# [4] = system: telomeric G-quadruplex DNA sequence d[AG3(T2AG3)3] (SEQ ID NO: 1); assay: CD titration of compounds into human telomeric G-quadruplex DNA (induced CD); format: binding
# Text: as §1
# (§2) Stock solutions of individual dicationic polyaryl compounds were prepared in double distilled water and diluted to working concentrations immediately before use with buffer. All measurements were performed at 20° C. in a 10 mM HEPES buffer (pH 7.4) containing 3 mM EDTA and 50 mM KCl, NaCl, or LiCl. Absorbance spectra were obtained on a Varian Cary 300 BIO UV-visible spectrophotometer (Varian, Inc., Palo Alto, Calif., United States of America) in a quartz cell with a 1 cm pathlength. CD spectra were recorded using a Jasco J-810 spectrapolarimeter (Jasco, Inc., Easton, Md., United States of America) in a 1-cm cell using an instrument scanning speed of 50 nm/min with a response time of 1 s. The spectra were averaged over four scans. A buffer baseline scan was collected in the same cuvette and subtracted from the average scan for each sample. Appropriate amounts of dicationic compound stock solution or DNA were added sequentially to increase the molar ratio.
# When an achiral ligand binds tightly to a chiral host, such as DNA, a CD signal is induced in the wavelength region corresponding to the absorbance of the ligand. […] An additional negative band centered at 395 nm overlaps with the higher energy exciton band. […] Restriction of the rotational and translational freedom of the two molecules of the dimer relative to each other will cause an increase in the rotational strength of the induced CD band, resulting in a large ellipticity. See Allenmark, S., Chirality, 15, 409-422 (2003).
# Some compounds appeared to bind to the telomeric G-quadruplex DNA sequence d[AG3(T2AG3)3] […] Relative strength of the induced CD is indicated by the number of (+) marks.
# [5] = system: modified human telomere sequences; assay: CD titration with modified human telomere sequences; format: binding; details: 50 mM KCl, 10 mM K2HPO4, 0.1 mM EDTA, pH 7.0
# Text: as §1
# as §2, with “All measurements were performed at 20° C. in a 10 mM HEPES buffer (pH 7.4) containing 3 mM EDTA and 50 mM KCl, NaCl, or LiCl.” left out, “Appropriate amounts of dicationic compound stock solution or DNA were added sequentially to increase the molar ratio.” left out
smiles,measurement,setting,value
"N=C(N)c1ccc(-c2ccc(-c3ccc(C(=N)N)o3)o2)cc1 [Compound 8, 5′-(4-Amidinophenyl)-2,2′-bifuran-5-carboxamidine]",exciton splitting in CD spectra (in words),[1],exhibited exciton splitting
same,In Vivo T.b.r. cures,"[2]; mice cured / mice infected, days 3-6 post-infection",2/4
same,In Vivo T.b.r. survival time,[2]; observation up to day 60,> 45.5 days
same,IC50,[3],41.5 nM
same,ΔTm,human telomeric DNA,approximately 10 °C
same,exciton splitting in CD spectra (in words),[4],induced exciton splitting
same,Induced CD (exciton),[4]; G-Quadruplex Affinity,+++++
same,exciton splitting in CD spectra (in words),[5],exhibited exciton splitting
